Data on four compounds can be found in patent US20220218852A1, “NOVEL RADIOLABELLED CXCR4-TARGETING COMPOUNDS FOR DIAGNOSIS AND THERAPY” (PROVINCIAL HEALTH SERVICES AUTHORITY, priority 2019, published 2022).

Like-named read-outs stand apart in the source and are kept apart here. Positions of bridges follow the written chain, without caps; N, C: chain ends. Non-standard residues stand in square brackets, D forms with d. Residues, ends and D or L forms follow the SMILES beside them. Groups on a side chain read outwards from the residue. Chains are numbered I, II in the order given. *: point of attachment. X5 = C[N+](C)(Cc1cn(CC(=O)*)nn1)C[B-](F)(F)F; 2Nal = N[C@@H](Cc1ccc2ccccc2c1)C(=O)O; X3 = C[N+](C)(CCCC(=O)*)C[B-](F)(F)F; Lys(iPr) = CC(C)NCCCC[C@H](N)C(=O)O

Assay [1] concerns the target T1, CXCR4 (Homo sapiens, UniProt P61073).
T1 construct: expressed in transfected cells; host or cells: CHO:CXCR4 cells (gift from NIH); CHO:WT used as the control line
The experiment in a line: Competition binding assay ([^125I]SDF-1α, CHO:CXCR4 cells). As to conditions: competitive binding vs [^125I]SDF-1α, read-out: IC50 (nM), binding affinity for CXCR4. Here is the method:
The binding affinities of nonlabelled peptides for CXCR4 were determined using a competition binding assay using the CHO:CXCR4 cells. Briefly, CHO:CXCR4 cells (200,000 cells/well) were plated in a 24-well BioCoat™ Poly-D-Lysine Multiwell Plates (Corning) the previous night. The next day, each well was incubated with RPMI-1640 medium (Life Technologies Corporations) supplemented with 20 mM HEPES and 2 mg/mL BSA, [^125I]SDF-1α (0.01 nM, Perkin Elmer) and competing non-radioactive ligands ([…]) and incubated for 1-1.5 hours at 27° C. with moderate shaking. After incubation, the cells were washed with ice-cold PBS twice, trypsinized and counted on a Perkin Elmer WIZARD 2480 gamma counter. IC50 values were determined by a nonlinear regression analysis to fit a logistic equation to the competition data using GraphPad Prism 7.

In assay [2] the target is T1, CXCR4. Conditions: Peng et al. 2015; read-out: IC50, block SDF-1a binding to CXCR4; cited from earlier work.

T1 sequence (P61073 whole entry): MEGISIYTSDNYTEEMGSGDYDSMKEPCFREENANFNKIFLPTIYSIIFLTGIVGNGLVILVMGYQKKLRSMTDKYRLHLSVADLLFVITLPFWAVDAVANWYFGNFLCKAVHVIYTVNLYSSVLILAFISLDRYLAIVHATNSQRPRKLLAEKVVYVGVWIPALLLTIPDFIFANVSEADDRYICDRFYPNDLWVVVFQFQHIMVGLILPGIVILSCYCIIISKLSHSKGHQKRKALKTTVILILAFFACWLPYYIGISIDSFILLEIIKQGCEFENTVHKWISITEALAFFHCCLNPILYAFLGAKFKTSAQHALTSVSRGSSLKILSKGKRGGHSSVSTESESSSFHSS

One may read the IC50 as the midpoint of a concentration-inhibition curve. As for `CC(C)NCCCC[C@@H]1NC(=O)[C@H](Cc2ccc(O)cc2)NC(=O)[C@H](Cc2ccccc2)NC(=O)CC[C@H](C(=O)N[C@@H](CCCCNC(C)C)C(=O)N[C@@H](CCCCNC(=O)[C@H](CCC(=O)O)NC(=O)[C@H](CCC(=O)O)NC(=O)[C@H](CCC(=O)O)NC(=O)[C@H](CCCCNC(=O)[C@H](CCC(=O)O)NC(=O)Cn2cc(C[N+](C)(C)C[B-](F)(F)F)nn2)NC(=O)[C@H](CCC(=O)O)NC(=O)Cn2cc(C[N+](C)(C)C[B-](F)(F)F)nn2)C(N)=O)NC(=O)CNC(=O)[C@H](Cc2ccc3ccccc3c2)NC(=O)[C@@H](CCCNC(=N)N)NC1=O` [BL04] (I: FY[Lys(iPr)][dR][2Nal]G[dE][Lys(iPr)]K-NH2 / II: X5-EK([Glu-X5])EEE; amide I:9-II:C; lactam I:N-I:7), on CXCR4 [1], the IC50 turned out to be 63 ± 9 nM. As to `CC(C)NCCCC[C@@H]1NC(=O)[C@H](Cc2ccc(O)cc2)NC(=O)[C@H](Cc2ccccc2)NC(=O)CC[C@H](C(=O)N[C@@H](CCCCNC(C)C)C(=O)N[C@@H](CCCCNC(=O)[C@H](CCC(=O)O)NC(=O)[C@H](CCC(=O)O)NC(=O)[C@H](CCC(=O)O)NC(=O)CCC[N+](C)(C)C[B-](F)(F)F)C(N)=O)NC(=O)CNC(=O)[C@H](Cc2ccc3ccccc3c2)NC(=O)[C@@H](CCCNC(=N)N)NC1=O` [BL08] (FY[Lys(iPr)][dR][2Nal]G[dE][Lys(iPr)]K([Glu-Glu-Glu-X3])-NH2; lactam N-7), the IC50 at CXCR4 [1] turned out to be 11.6 ± 7 nM.

As to `CC(C)NCCCC[C@@H]1NC(=O)[C@H](Cc2ccc(O)cc2)NC(=O)[C@H](Cc2ccccc2)NC(=O)CC[C@H](C(=O)N[C@@H](CCCCNC(C)C)C(=O)N[C@@H](CCCCNC(=O)[C@H](CCC(=O)O)NC(=O)[C@H](CCC(=O)O)NC(=O)[C@H](CCC(=O)O)NC(=O)Cn2cc(C[N+](C)(C)C[B-](F)(F)F)nn2)C(N)=O)NC(=O)CNC(=O)[C@H](Cc2ccc3ccccc3c2)NC(=O)[C@@H](CCCNC(=N)N)NC1=O` [BL09] (FY[Lys(iPr)][dR][2Nal]G[dE][Lys(iPr)]K([Glu-Glu-Glu-X5])-NH2; lactam N-7), on CXCR4 [1], the IC50 was found to be 13.4 ± 2.3 nM.

“cyclo[Phe-Tyr-Lys(iPr)-D-Arg-2-NaI-Gly-D-Glu]-Lys(iPr)-NH2 [LY2510924]”: on CXCR4 [2], the concentration for half-maximal inhibition (IC50) is 0.079 nM.
